Molecules are shown by their SMILES.

In assay [1] the test system is TNFα. In words: cells. Type of assay: cell-based, human. To be noted: Homo sapiens, Monocyte, LPS-stimulated human monocytes, TNFα content; read-out: EC50 TNF.
For assay [2], the target named is IRAK4 enzyme (Homo sapiens (Human), UniProt Q9NWZ3). In words: biochemical. Type of assay: biochemical. To be noted: IRAK4 enzyme, TR-FRET (HTRF), 500 μM ATP.
IRAK4 enzyme, sequence (Q9NWZ3 whole entry): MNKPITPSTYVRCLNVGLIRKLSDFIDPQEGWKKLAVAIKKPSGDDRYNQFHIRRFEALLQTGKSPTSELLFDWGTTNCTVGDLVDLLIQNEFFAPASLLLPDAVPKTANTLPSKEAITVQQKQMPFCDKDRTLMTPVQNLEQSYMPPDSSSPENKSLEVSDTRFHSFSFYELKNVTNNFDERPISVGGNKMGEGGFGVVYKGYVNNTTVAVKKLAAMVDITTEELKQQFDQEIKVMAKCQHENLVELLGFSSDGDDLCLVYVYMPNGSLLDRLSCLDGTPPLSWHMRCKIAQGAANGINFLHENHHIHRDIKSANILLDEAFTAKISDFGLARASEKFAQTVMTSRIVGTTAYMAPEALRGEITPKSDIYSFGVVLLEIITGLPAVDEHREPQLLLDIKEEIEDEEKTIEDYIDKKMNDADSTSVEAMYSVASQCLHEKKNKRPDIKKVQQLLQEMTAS

Turning to `CC(C)(O)CNC(=O)c1cnc(-c2ccc3cc(C#N)cnn23)cc1NC12CCC(O)(CC1)CC2` [Example 753, 6-(3-cyanopyrrolo[1,2-b]pyridazin-7-yl)-N-(2-hydroxy-2-methylpropyl)-4-((4-hydroxybicyclo[2.2.2]octan-1-yl)amino) nicotinamide], the EC50 in assay [1] is 225 nM. The molecule further showed an IC50 in assay [2] of 7 nM.

Regarding `COC(=O)NC1CC2(C1)CC(Nc1cc(-c3ccc4cc(C#N)cnn34)ncc1C(=O)NC[C@@H](F)C(C)(C)O)C2` (stereo partly drawn) [Example 754, (R)-methyl (6-((2-(3-cyanopyrrolo[1,2-b]pyridazin-7-yl)-5-((2-fluoro-3-hydroxy-3-methylbutyl)carbamoyl)pyridin-4-yl)amino)spiro[3.3]heptan-2-yl)carbamate], the EC50 in assay [1] was determined as 20 nM. This molecule displayed an IC50 in assay [2] of less than 1 nM.

Take `CC(C)(O)[C@H](F)CNC(=O)c1cnc(-c2ccc3cc(C#N)cnn23)cc1Nc1cnn(-c2ccccn2)c1` [Example 755, (R)-6-(3-cyanopyrrolo[1,2-b]pyridazin-7-yl)-N-(2-fluoro-3-hydroxy-3-methylbutyl)-4-((1-(pyridin-2-yl)-1H-pyrazol-4-yl)amino)nicotinamide]: the EC50 in assay [1] amounted to 16 nM. Besides, in assay [2], it took 1 nM to reach half-maximal inhibition (IC50).

As to `COC(=O)NCC1(F)CC(Nc2cc(-c3ccc4cc(C#N)cnn34)ncc2C(=O)NC[C@@H](F)C(C)(C)O)C1` (stereo partly drawn) [Example 758, (R)-methyl ((3-((2-(3-cyanopyrrolo[1,2-b]pyridazin-7-yl)-5-((2-fluoro-3-hydroxy-3-methylbutyl)carbamoyl)pyridin-4-yl)amino)-1-fluorocyclobutyl)methyl)carbamate], the EC50 in assay [1] is 11 nM. Moreover, the IC50 in assay [2] came to 1 nM.

Take `CC(C)(O)[C@H](F)CNC(=O)c1cnc(-c2ccc3cc(C#N)cnn23)cc1Nc1cnn(-c2ccncc2)c1` [Example 761, (R)-6-(3-cyanopyrrolo[1,2-b]pyridazin-7-yl)-N-(2-fluoro-3-hydroxy-3-methylbutyl)-4-((1-(pyridin-4-yl)-1H-pyrazol-4-yl)amino) nicotinamide]: the EC50 in assay [1] came to 26 nM. In assay [2], this molecule showed an IC50 of less than 1 nM.

For `CC(C)(O)[C@H](F)CNC(=O)c1cnc(-c2ccc3cc(C#N)cnn23)cc1Nc1ccc(-n2cncn2)cc1` [Example 762, (R)-4-((4-(1H-1,2,4-triazol-1-yl)phenyl)amino)-6-(3-cyanopyrrolo[1,2-b]pyridazin-7-yl)-N-(2-fluoro-3-hydroxy-3-methylbutyl)nicotinamide], the EC50 in assay [1] came to 7 nM. In assay [2], this molecule displayed an IC50 of less than 1 nM.

`CC(C)(O)[C@H](F)CNC(=O)c1cnc(-c2ccc3cc(C#N)cnn23)cc1NC1CC2(CNC(=O)O2)C1` (stereo partly drawn) [Example 763, (R)-6-(3-cyanopyrrolo[1,2-b]pyridazin-7-yl)-N-(2-fluoro-3-hydroxy-3-methylbutyl)-4-((6-oxo-5-oxa-7-azaspiro[3.4]octan-2-yl)amino)nicotinamide]: the EC50 in assay [1] came to 155 nM. Moreover, the IC50 in assay [2] is less than 1 nM.

Take `CC(C)(O)[C@H](F)CNC(=O)c1cnc(-c2ccc3cc(C#N)cnn23)cc1Nc1ccc(-n2cncn2)nc1` [Example 766, (R)-4-((6-(1H-1,2,4-triazol-1-yl)pyridin-3-yl)amino)-6-(3-cyanopyrrolo[1,2-b]pyridazin-7-yl)-N-(2-fluoro-3-hydroxy-3-methyl-butyl)nicotinamide]: in assay [1], the EC50 stood at 38 nM. This molecule also had an IC50 in assay [2] of less than 1 nM.

For `CC(C)(O)[C@H](F)CNC(=O)c1cnc(-c2ccc3cc(C#N)cnn23)cc1Nc1ccc(-n2ccnc2)cc1` [Example 767, (R)-4-((4-(1H-imidazol-1-yl)phenyl)amino)-6-(3-cyanopyrrolo[1,2-b]pyridazin-7-yl)-N-(2-fluoro-3-hydroxy-3-methylbutyl)nicotinamide], in assay [1], the EC50 was found to be 35 nM. The molecule also registered an IC50 in assay [2] of less than 1 nM.

As for `CC(C)(O)[C@H](F)CNC(=O)c1cnc(-c2ccc3cc(C#N)cnn23)cc1Nc1ccc(-n2ccnc2)nc1` [Example 768, (R)-4-((6-(1H-imidazol-1-yl)pyridin-3-yl)amino)-6-(3-cyanopyrrolo[1,2-b]pyridazin-7-yl)-N-(2-fluoro-3-hydroxy-3-methyl-butyl)nicotinamide], the EC50 in assay [1] worked out at 24 nM. In addition, the IC50 in assay [2] is less than 1 nM.

`CC(C)(O)[C@H](F)CNC(=O)c1cnc(-c2ccc3cc(C#N)cnn23)cc1Nc1ccc(-n2cccn2)cc1` [Example 769, (R)-4-((4-(1H-pyrazol-1-yl)phenyl)amino)-6-(3-cyanopyrrolo[1,2-b]pyridazin-7-yl)-N-(2-fluoro-3-hydroxy-3-methylbutyl)nicotinamide]: in assay [1], the EC50 was 44 nM. For the same molecule, in assay [2], the IC50 was less than 1 nM.

Regarding `CC(C)(O)[C@H](F)CNC(=O)c1cnc(-c2ccc3cc(C#N)cnn23)cc1Nc1ccc(-n2cccn2)nc1` [Example 770, (R)-4-((6-(1H-pyrazol-1-yl)pyridin-3-yl)amino)-6-(3-cyanopyrrolo[1,2-b]pyridazin-7-yl)-N-(2-fluoro-3-hydroxy-3-methyl-butyl)nicotinamide], the concentration giving a half-maximal response (EC50) in assay [1] is 50 nM. In addition, the IC50 in assay [2] is less than 1 nM.

As for `CC(C)(O)[C@H](F)CNC(=O)c1cnc(-c2ccc3cc(C#N)cnn23)cc1Nc1ccc(-c2nncs2)cc1` [Example 771, (R)-4-((4-(1,3,4-thiadiazol-2-yl)phenyl)amino)-6-(3-cyanopyrrolo[1,2-b]pyridazin-7-yl)-N-(2-fluoro-3-hydroxy-3-methylbutyl)nicotinamide], the EC50 in assay [1] was 37 nM. In assay [2], the IC50 is less than 1 nM.

Take `CC(C)(O)[C@H](F)CNC(=O)c1cnc(-c2ccc3cc(C#N)cnn23)cc1Nc1ccc(-n2cnnc2)cc1` [Example 772, (R)-4-((4-(4H-1,2,4-triazol-4-yl)phenyl)amino)-6-(3-cyanopyrrolo[1,2-b]pyridazin-7-yl)-N-(2-fluoro-3-hydroxy-3-methylbutyl)nicotinamide]: the EC50 in assay [1] is 14 nM. For the same molecule, the IC50 in assay [2] is less than 1 nM.

Regarding `CC(C)(O)[C@H](F)CNC(=O)c1cnc(-c2ccc3cc(C#N)cnn23)cc1Nc1ccc(-c2ccon2)cc1` [Example 773, (R)-6-(3-cyanopyrrolo[1,2-b]pyridazin-7-yl)-N-(2-fluoro-3-hydroxy-3-methylbutyl)-4-((4-(isoxazol-3-yl)phenyl)amino) nicotinamide], the EC50 in assay [1] is 43 nM. For the same molecule, the IC50 in assay [2] came to 1 nM.

On to `CC(C)(O)[C@H](F)CNC(=O)c1cnc(-c2ccc3cc(C#N)cnn23)cc1Nc1ccc(-c2ccon2)nc1` [Example 775, (R)-6-(3-cyanopyrrolo[1,2-b]pyridazin-7-yl)-N-(2-fluoro-3-hydroxy-3-methylbutyl)-4-((6-(isoxazol-3-yl)pyridin-3-yl)amino)nicotinamide], for which, in assay [1], the EC50 was found to be 25 nM. The IC50 in assay [2] was less than 1 nM.

On to `CC(C)(O)[C@H](F)CNC(=O)c1cnc(-c2ccc3cc(C#N)cnn23)cc1N[C@H]1C[C@H](Cn2cncn2)C1` [Example 776, 4-(((1r,3R)-3-((1H-1,2,4-triazol-1-yl)methyl)cyclo-butyl)amino)-6-(3-cyano-pyrrolo[1,2-b]pyridazin-7-yl)-N-((R)-2-fluoro-3-hydroxy-3-methylbutyl) nicotinamide], for which the EC50 in assay [1] worked out at 32 nM. The molecule further returned an IC50 in assay [2] of 1 nM.

Turning to `CC(C)(O)[C@H](F)CNC(=O)c1cnc(-c2ccc3cc(C#N)cnn23)cc1N[C@H]1CC[C@H](c2ccon2)CC1` [Example 777, 6-(3-cyanopyrrolo[1,2-b]pyridazin-7-yl)-N-((R)-2-fluoro-3-hydroxy-3-methylbutyl)-4-(((1r,4R)-4-(isoxazol-3-yl)cyclohexyl)amino)nicotinamide], in assay [1], the EC50 came out at 15 nM. The molecule further displayed an IC50 in assay [2] of less than 1 nM.

On to `CC(C)(O)[C@H](F)CNC(=O)c1cnc(-c2ccc3cc(C#N)cnn23)cc1Nc1ccc(-n2nccn2)nc1` [Example 778, (R)-4-((6-(2H-1,2,3-triazol-2-yl)pyridin-3-yl)amino)-6-(3-cyanopyrrolo[1,2-b]pyridazin-7-yl)-N-(2-fluoro-3-hydroxy-3-methyl-butyl)nicotinamide], for which, in assay [1], the EC50 was 51 nM. The molecule also showed an IC50 in assay [2] of less than 1 nM.

Consider `CC(C)(O)[C@H](F)CNC(=O)c1cnc(-c2ccc3cc(C#N)cnn23)cc1N[C@H]1CC[C@H](n2cncn2)CC1` [Example 779, 4-(((1r,4R)-4-(1H-1,2,4-triazol-1-yl)cyclohexyl)amino)-6-(3-cyano-pyrrolo[1,2-b]pyridazin-7-yl)-N-((R)-2-fluoro-3-hydroxy-3-methylbutyl) nicotinamide], for which, in assay [1], the EC50 stood at 28 nM. Besides, the IC50 in assay [2] was less than 1 nM.

Turning to `CC(C)(O)[C@H](F)CNC(=O)c1cnc(-c2ccc3cc(C#N)cnn23)cc1NC12CCC(N3CCOCC3)(CC1)CC2` [Example 780, (R)-6-(3-cyanopyrrolo[1,2-b]pyridazin-7-yl)-N-(2-fluoro-3-hydroxy-3-methylbutyl)-4-((4-morpholinobicyclo[2.2.2]octan-1-yl)amino)nicotinamide], the EC50 in assay [1] stood at 38 nM. In assay [2], the IC50 stood at 1 nM.

`CC(C)(O)[C@H](F)CNC(=O)c1cnc(-c2ccc3cc(C#N)cnn23)cc1NC1CCC2(CC1)COC2` [Example 781, (R)-4-(2-oxaspiro[3.5]nonan-7-ylamino)-6-(3-cyanopyrrolo[1,2-b]pyridazin-7-yl)-N-(2-fluoro-3-hydroxy-3-methyl-butyl)nicotinamide]: in assay [1], the EC50 amounted to 90 nM. Further, in assay [2], the IC50 was less than 1 nM.

Consider `Cn1cnc2cc(Nc3cc(-c4ccc5cc(C#N)cnn45)ncc3C(=O)NC[C@@H](F)C(C)(C)O)cnc21` [Example 782, (R)-6-(3-cyanopyrrolo[1,2-b]pyridazin-7-yl)-N-(2-fluoro-3-hydroxy-3-methylbutyl)-4-((3-methyl-3H-imidazo[4,5-b]pyridin-6-yl)amino)nicotinamide], for which the EC50 in assay [1] is 29 nM. In assay [2], this molecule yielded an IC50 of less than 1 nM.

Turning to `CC(C)(O)[C@H](F)CNC(=O)c1cnc(-c2ccc3cc(C#N)cnn23)cc1N[C@H]1C[C@H](Cn2ccnc2)C1` [Example 783, 4-(((1r,3R)-3-((1H-imidazol-1-yl)methyl)cyclo-butyl)amino)-6-(3-cyanopyrrolo[1,2-b]pyridazin-7-yl)-N-((R)-2-fluoro-3-hydroxy-3-methylbutyl)nicotinamide], in assay [1], the EC50 was 22 nM. The molecule further had an IC50 in assay [2] of less than 1 nM.

The values are drawn from patent US10336762B2 (priority 2017, dated 2019).
